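Growth conditions: 96-well plates. Treatment: test compound, 48 hours, 5 concentrations. Analysis: linear interpolation between bracketing concentrations; unreached endpoints set to highest concentration. At the TGI there is no net growth.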
Assays:
Test in all cases: DTP human tumour cell line panel, 48 h
NCI-H460 lung = test system: NCI-H460 lung
RPMI-8226 leukemia = test system: RPMI-8226 leukemia
K-562 leukemia = test system: K-562 leukemia
UACC-257 melanoma = test system: UACC-257 melanoma
HCT-15 colon = test system: HCT-15 colon
786-0 renal = test system: 786-0 renal
SF-295 CNS = test system: SF-295 CNS
LXFL 529 NSCLC = test system: LXFL 529 NSCLC
SK-OV-3 ovarian = test system: SK-OV-3 ovarian
RXF 393 renal = test system: RXF 393 renal
MALME-3M melanoma = test system: MALME-3M melanoma
U251 CNS = test system: U251 CNS
SR leukemia = test system: SR leukemia
NCI-H226 lung = test system: NCI-H226 lung
LOX IMVI melanoma = test system: LOX IMVI melanoma
UACC-62 melanoma = test system: UACC-62 melanoma
SF-539 CNS = test system: SF-539 CNS
NCI-H23 lung = test system: NCI-H23 lung
SK-MEL-28 melanoma = test system: SK-MEL-28 melanoma
M19-MEL melanoma = test system: M19-MEL melanoma
A549 NSCLC = test system: A549 NSCLC
HOP-92 NSCLC = test system: HOP-92 NSCLC
SW-620 colon = test system: SW-620 colon
HCC-2998 colon = test system: HCC-2998 colon
CCRF-CEM leukemia = test system: CCRF-CEM leukemia
A498 renal = test system: A498 renal
HT29 colon = test system: HT29 colon
OVCAR-8 ovarian = test system: OVCAR-8 ovarian
DLD-1 colon = test system: DLD-1 colon
OVCAR-4 ovarian = test system: OVCAR-4 ovarian
MOLT-4 leukemia = test system: MOLT-4 leukemia
OVCAR-3 ovarian = test system: OVCAR-3 ovarian
ACHN renal = test system: ACHN renal
SF-268 CNS = test system: SF-268 CNS
OVCAR-5 ovarian = test system: OVCAR-5 ovarian
SN12C renal = test system: SN12C renal
IGROV1 ovarian = test system: IGROV1 ovarian
KM12 colon = test system: KM12 colon
EKVX NSCLC = test system: EKVX NSCLC
SK-MEL-5 melanoma = test system: SK-MEL-5 melanoma
HOP-62 NSCLC = test system: HOP-62 NSCLC
SNB-19 CNS = test system: SNB-19 CNS
COLO 205 colon = test system: COLO 205 colon
HCT-116 colon = test system: HCT-116 colon
CAKI-1 renal = test system: CAKI-1 renal
UO-31 renal = test system: UO-31 renal
SK-MEL-2 melanoma = test system: SK-MEL-2 melanoma
SNB-78 CNS = test system: SNB-78 CNS
NCI-H522 lung = test system: NCI-H522 lung
HOP-18 NSCLC = test system: HOP-18 NSCLC
XF 498 CNS = test system: XF 498 CNS
KM20L2 colon = test system: KM20L2 colon
TK-10 renal = test system: TK-10 renal
DMS 273 small cell lung = test system: DMS 273 small cell lung
HL-60(TB) leukemia = test system: HL-60(TB) leukemia
SNB-75 CNS = test system: SNB-75 CNS
M14 melanoma = test system: M14 melanoma
DMS 114 small cell lung = test system: DMS 114 small cell lung

CN/N=C(/CC(=O)c1sc(-n2nc(-c3ccccc3)cc2-c2ccccc2)nc1C)C(=O)Nc1ccc(Cl)c(Cl)c1
TGI (NCI-H460 lung): > 100 µM
TGI (RPMI-8226 leukemia): > 100 µM
TGI (K-562 leukemia): > 100 µM
TGI (UACC-257 melanoma): > 100 µM
TGI (HCT-15 colon): > 100 µM
TGI (786-0 renal): > 100 µM
TGI (SF-295 CNS): > 100 µM
TGI (LXFL 529 NSCLC): > 100 µM
TGI (SK-OV-3 ovarian): > 100 µM
TGI (RXF 393 renal): > 100 µM
TGI (MALME-3M melanoma): > 100 µM
TGI (U251 CNS): > 100 µM
TGI (SR leukemia): > 100 µM
TGI (NCI-H226 lung): > 100 µM
TGI (LOX IMVI melanoma): > 100 µM
TGI (UACC-62 melanoma): > 100 µM
TGI (SF-539 CNS): > 100 µM
TGI (NCI-H23 lung): > 100 µM
TGI (SK-MEL-28 melanoma): > 100 µM
TGI (M19-MEL melanoma): > 100 µM
TGI (A549 NSCLC): > 100 µM
TGI (HOP-92 NSCLC): 70.4 µM
TGI (SW-620 colon): > 100 µM
TGI (HCC-2998 colon): > 100 µM
TGI (CCRF-CEM leukemia): > 100 µM
TGI (A498 renal): > 100 µM
TGI (HT29 colon): > 100 µM
TGI (OVCAR-8 ovarian): > 100 µM
TGI (DLD-1 colon): > 100 µM
TGI (OVCAR-4 ovarian): > 100 µM
TGI (MOLT-4 leukemia): > 100 µM
TGI (OVCAR-3 ovarian): > 100 µM
TGI (ACHN renal): > 100 µM
TGI (SF-268 CNS): > 100 µM
TGI (OVCAR-5 ovarian): 69.6 µM
TGI (SN12C renal): > 100 µM
TGI (IGROV1 ovarian): > 100 µM
TGI (KM12 colon): > 100 µM
TGI (EKVX NSCLC): 17.7 µM
TGI (SK-MEL-5 melanoma): > 100 µM
TGI (HOP-62 NSCLC): > 100 µM
TGI (SNB-19 CNS): > 100 µM
TGI (COLO 205 colon): > 100 µM
TGI (HCT-116 colon): > 100 µM
TGI (CAKI-1 renal): > 100 µM
TGI (UO-31 renal): > 100 µM
TGI (SK-MEL-2 melanoma): > 100 µM
TGI (SNB-78 CNS): > 100 µM
TGI (NCI-H522 lung): > 100 µM

CCN1C(=O)C(N=[N+]=[N-])(c2ccccc2)C(=O)c2ccccc21 (stereo not given)
TGI (NCI-H460 lung): > 100 µM
TGI (RPMI-8226 leukemia): > 100 µM
TGI (HOP-18 NSCLC): > 100 µM
TGI (K-562 leukemia): > 100 µM
TGI (UACC-257 melanoma): > 100 µM
TGI (XF 498 CNS): 33 µM
TGI (HCT-15 colon): > 100 µM
TGI (786-0 renal): > 100 µM
TGI (SF-295 CNS): > 100 µM
TGI (LXFL 529 NSCLC): > 100 µM
TGI (KM20L2 colon): > 100 µM
TGI (SK-OV-3 ovarian): > 100 µM
TGI (RXF 393 renal): > 100 µM
TGI (MALME-3M melanoma): > 100 µM
TGI (U251 CNS): > 100 µM
TGI (SR leukemia): > 100 µM
TGI (TK-10 renal): > 100 µM
TGI (NCI-H226 lung): > 100 µM
TGI (LOX IMVI melanoma): > 100 µM
TGI (UACC-62 melanoma): > 100 µM
TGI (SF-539 CNS): > 100 µM
TGI (NCI-H23 lung): > 100 µM
TGI (SK-MEL-28 melanoma): > 100 µM
TGI (M19-MEL melanoma): > 100 µM
TGI (DMS 273 small cell lung): > 100 µM
TGI (A549 NSCLC): > 100 µM
TGI (HOP-92 NSCLC): > 100 µM
TGI (SW-620 colon): > 100 µM
TGI (HCC-2998 colon): > 100 µM
TGI (CCRF-CEM leukemia): > 100 µM
TGI (HL-60(TB) leukemia): > 100 µM
TGI (SNB-75 CNS): > 100 µM
TGI (HT29 colon): > 100 µM
TGI (DLD-1 colon): > 100 µM
TGI (M14 melanoma): > 100 µM
TGI (OVCAR-4 ovarian): > 100 µM
TGI (MOLT-4 leukemia): > 100 µM
TGI (OVCAR-3 ovarian): > 100 µM
TGI (ACHN renal): > 100 µM
TGI (SF-268 CNS): > 100 µM
TGI (OVCAR-5 ovarian): > 100 µM
TGI (SN12C renal): > 100 µM
TGI (IGROV1 ovarian): > 100 µM
TGI (KM12 colon): > 100 µM
TGI (EKVX NSCLC): > 100 µM
TGI (SK-MEL-5 melanoma): > 100 µM
TGI (DMS 114 small cell lung): > 100 µM
TGI (HOP-62 NSCLC): > 100 µM
TGI (SNB-19 CNS): > 100 µM
TGI (COLO 205 colon): > 100 µM
TGI (HCT-116 colon): > 100 µM
TGI (CAKI-1 renal): > 100 µM
TGI (UO-31 renal): > 100 µM
TGI (SK-MEL-2 melanoma): > 100 µM
TGI (SNB-78 CNS): > 100 µM
TGI (NCI-H522 lung): > 100 µM
